Experimental data as given in the pKa sets of Baltruschat and Czodrowski (2020).
“And” between values parts separate entries of the source, which are not always exact repeats. Equal values may be shown once. Where a SMILES comes first, the peptide text is derived from it.

conditions: acidic group

Row | Compound | pKa
1 | CNc1ccc(S(=O)(=O)Nc2nc(C)cs2)cc1 | 6.63
2 | Oc1ccc(F)cc1CN1CCOCC1 | 10.5
3 | N#Cc1cccc(O)c1 | 8.63
4 | O[n+]1c2ccccc2cc2ccccc21 | 1.37
5 | Sc1cnc2ccccc2c1 | 6.13
6 | O=C(O)C[NH+](CCNS(=O)(=O)c1ccc(CCBr)cc1)CC(=O)O | 2.15
7 | N#C/C(=C\C(=O)O)c1ccccc1 | 3.07
8 | Cc1nc2nc([O-])[nH]c(=O)c2[nH]1 | 9.7
9 | O=C(O)c1cc2ccccc2o1 | 2.84
10 | CCC[n+]1cccc2cc(O)ccc21 | 7.08
11 | Clc1ccccc1-c1nnn[nH]1 | 3.69
12 | Nc1nc(C(F)(F)F)c2[nH]cnc2n1 | 8.87
13 | Cc1c(C)c(O)c(C)c(C)c1O | 11.3
14 | Nc1nc[nH+]c(O)c1N | 3.57
15 | C[n+]1ccccc1/C=C/c1ccc(O)cc1 | 8.4
16 | NCc1ccc(S(N)(=O)=O)cc1 | 10.2
17 | O=C(/C=N/O)CCl | 7.9
18 | Cc1cccc(C(=O)O)c1I | 2.92
19 | Oc1ccc2ncccc2c1 | 8.82
20 | C[C@H]1O[C@H](O[C@H]2CC[C@H]([n+]3ccc(N)nc3O)O[C@@H]2C)[C@H](O)[C@@H](O)[C@@H]1[NH+](C)C | 3.9
21 | O=C(O)CC(c1[nH]cc[nH+]1)c1[nH]cc[nH+]1 | 2.79
22 | O=C(O)C[Se]c1cccc([N+](=O)[O-])c1 | 3.55
23 | C/C(=C/Cl)C(=O)O | 3.05
24 | O=C(O)C1(O)CCCC1 | 4.11
25 | OC[C@@H]1O[C@H]([n+]2ccc(NO)nc2O)[C@@H](O)[C@H]1O | 2.26
26 | Cc1ccc[n+](O)c1 | 1.08
27 | CC(=N\O)/C(CN(C)C)=N\[O-] | 12.5

Row | Compound | pKa
28 | C[NH+](C)Cc1cc(-c2ccccc2)cc(C[NH+](C)C)c1O | 5.65
29 | N#CC(C#N)c1ccc([N+](=O)[O-])cc1 | 2.35
30 | O=C1CCC(=O)C1 | 4.5
31 | O=C(O)[C@H](O)c1cccc([N+](=O)[O-])c1 | 3.03
32 | C=C(OC)C(=O)O | 3.38
33 | O=NCC(=O)c1cccnc1 | 7.8
34 | O=S(=O)([O-])c1cc(O)c2cn[nH]c2c1 | 8.1
35 | CC(=O)N1CSC[C@H]1C(=O)O | 2.94
36 | O=[N+]([O-])c1cc(C[NH+]2CCOCC2)c(O)c2ccccc12 | 3
37 | C=CC[NH2+]CCCCCCCCCCC(=O)O | 4.7
38 | O=C(O)[C@@H]1CC[C@@H](C(=O)O)[Se]1 | 3.46
39 | COc1cc(C)nc(-n2nc(C)cc2O)n1 | 6.9
40 | NS(=O)(=O)C(F)(F)Br | 6.53
41 | C[NH+](C)CCCCCCCCCCNC(=O)/C=N/O | 9.02
42 | On1nnc2ccc(Cl)cc21 | 4.15
43 | O=c1cnn([C@H]2O[C@@H](CO)[C@H](O)[C@@H]2O)c(=O)[nH]1 | 6.6
44 | O=C(O)c1ccc(CO)cc1 | 4.18
45 | O=C1CSc2ncnc(N3CCOCC3)c2N1 | 10.4
46 | CC(C)([SeH])C[NH3+] | 5.21
47 | CC(=O)NC(CS)C(=O)[O-] (stereo unspecified) | 9.62
48 | Cc1ccc([Se]CC(=O)O)cc1 | 3.86
49 | Cc1cccc(=O)c(O)c1 | 7.26
50 | O=S(=O)([O-])c1ccc(O)c2cn[nH]c12 | 7.6
51 | NC1=[NH+][C@@H](CC(=O)O)C(=O)N1CCCC([NH3+])C(=O)O (stereo partly specified) | 1.86
52 | COc1ccc(S)cc1 | 6.76
53 | O=C(O)[C@@H]1CC[C@@H](C(=O)O)S1 | 3.3
54 | CCCCc1cc(Cl)cc(Cl)c1O | 8.1

Row | Compound | pKa
55 | Cc1ccccc1SCC(=O)O | 3.46
56 | CCOP(=O)(O)NS(=O)(=O)c1ccccc1 | 1.8
57 | Oc1ccc(-c2cc(=S)ss2)cc1 | 7.86
58 | NC(=O)CN(CCN(CC(N)=O)Cc1ccccc1O)Cc1ccccc1[O-] | 11
59 | Cc1ccc(S(=O)(=O)N[C@@H](CC(N)=O)C(=O)[O-])cc1 | 11.4
60 | OB1OCc2ccccc21 | 7.38
61 | O=C(O)c1c2ccccc2cc2ccccc12 | 3.65
62 | O=C(Cc1ccccc1)NO | 9.26
63 | O=C(O)[C@@H]1C[C@@H](O)C[NH2+]1 | 1.92
64 | CCCCNC(O)=S | 0.67
65 | O=C([O-])[C@@H]1O[C@H](Oc2ccc3[nH+]c(O)ccc3c2)[C@@H](O)[C@H](O)[C@H]1O | 3.75
66 | Oc1cccc2cccnc12 | 9.77
67 | CC(C)(C)OC(=O)NC(CCC(N)=O)C(=O)O (stereo unspecified) | 3.66
68 | CC(C)Oc1ccc(C(=O)O)cc1 | 4.57
69 | O=C(O)C[C@]1(O)C[C@@H]2C=C[C@H]1C2 | 4.36
70 | N#CCC[n+]1cccc(C(N)=O)c1.[Br-] | 13.2
71 | O/N=C\c1ccco1 | 10.8
72 | OCC[NH+](CCc1nnn[nH]1)CCc1nnn[nH]1 | 4.23
73 | CC(=O)c1ccccc1O | 10.4
74 | COc1ccccc1-c1ccccc1O | 10.4
75 | C/C(=N/O)c1ccc([O-])cc1O | 9.72
76 | O=C(NOC(=O)c1ccccc1)c1ccccc1 | 6
77 | Cc1cc[n+](O)cc1 | 1.29
78 | O/C(=C/c1ccccn1)c1ccccc1 | 12.2
79 | O=C(O)c1ccc([N+](=O)[O-])o1 | 2.06
80 | O=Cc1ncnc2nc[nH]c12 | 8.8

same assay, conditions: basic group

Row | Compound | pKa
81 | Oc1ccc(F)cc1CN1CCOCC1 | 6.78
82 | COc1ccc2c3c1O[C@H]1[C@@H](O)CC[C@H]4[C@@H](C2)N(C)CC[C@@]341 | 8.71
83 | Sc1cnc2ccccc2c1 | 2.33
84 | C(COCCc1nnn[nH]1)OCCc1nnn[nH]1 | 4.79
85 | COc1cc(S(C)(=O)=O)cc(C(=O)N[C@@H]2C[C@H]3CC[C@@H](C2)N3Cc2ccccc2)c1OC | 8.92
86 | [O-]c1ccccc1CN1CCCCC1 | 11
87 | CC[C@]12CCCN3CCc4c(n(c5ccccc45)CC1)[C@@H]32 | 6.9
88 | C=CCN(CC1CO1)CC1CO1 (stereo unspecified) | 6.16
89 | Nc1nc(C(F)(F)F)c2[nH]cnc2n1 | 1.85
90 | Cc1ccnc(-c2cc(C)ccn2)c1 | 5.32
91 | Cc1ccc(CN)cc1 | 9.51
92 | O=C(CCl)CCl | 11
93 | Nc1cccc(-c2ccccn2)n1 | 5.8
94 | CN(C)c1ccc([N+](C)(C)C)cc1 | 2.64
95 | C#CC(C)(C)N(C)C(C)C | 8.7
96 | C[C@H](O)C(=O)C1=Nc2c([O-])nc(N)nc2NC1 | 10.1
97 | Nc1nc[nH+]c(O)c1N | 1.34
98 | CC(C)(C)c1cc(N)cc(C(C)(C)C)c1[N+](=O)[O-] | 2.93
99 | Nc1cccc(Br)c1 | 3.41
100 | CCCCc1ccc(C(=O)[O-])nc1 | 5.7
101 | NNC(=O)c1ccc(N)cc1 | 3.56
102 | NCc1ccc(S(N)(=O)=O)cc1 | 8.35
103 | Oc1ccc2ncccc2c1 | 5.26

Row | Compound | pKa
104 | c1ccc2scnc2c1 | 1.38
105 | CCC1=NCCC1 | 7.91
106 | COc1cccc(C2NCCS2)c1 (stereo unspecified) | 5.12
107 | c1ccc2nnccc2c1 | 2.29
108 | C=C(C)C(=O)OCCN(C)CCCC | 8.27
109 | CC(C)CN | 10.4
110 | COc1cc(C)nc(NN)n1 | 6.2
111 | CN1CCN(C(c2ccccc2)c2ccccc2)CC1 | 8.05
112 | OCCN1CC[NH+](CCCN2c3ccccc3Sc3ccc(Cl)cc32)CC1 | 3.59
113 | Cc1ccc(Cl)cc1/C(=N/CCCN(C)C)c1ccccc1 | 8.8
114 | CC1CN2CCC1CC2 (stereo unspecified) | 11.3
115 | NNc1nncc2ccccc12 | 7.25
116 | NCCc1ccc(Cl)cc1 | 9.66
117 | Cn1cncc1C[C@H](NC(=O)CCN)C(=O)[O-] | 9.53
118 | C/C=C1/CN2CC[C@]34C(=C(C(=O)OC)[C@H]1C[C@H]23)Nc1ccccc14 | 7.46
119 | NCC(=O)N1CCC[C@H]1C(=O)[O-] (H-Gly-Pro-OH) | 8.49
120 | C/N=c1/sc2c(n1C)CCCC2 | 10
121 | O=C([O-])c1cccnc1 | 4.83
122 | CCC/C=C1\CCCN1C | 11.9
123 | Cc1cnc(N)s1 | 5.71
124 | CN(C)c1ccc2ccccc2c1 | 4.57
125 | NCC(=O)CN | 8.32
126 | CCNC(=O)c1ccccn1 | 2.4

Row | Compound | pKa
127 | Cc1ncnc2ccccc12 | 2.52
128 | CCC(O)CN(C)CC(C)O (stereo unspecified) | 8.9
129 | CN1[C@@H]2CC[C@H]1C[C@H](O)C2 | 10.3
130 | N/C(CC/C(N)=N/O)=N\O | 5.97
131 | Nc1ccc2nnc3ccccc3c2c1 | 6.68
132 | C[C@H]1CCCC[C@@H]1N | 10.6
133 | CCOc1ccc2nccc([C@@H](O)[C@@H]3C[C@H]4CCN3C[C@@H]4CC)c2c1 | 8.5
134 | Cc1cnn(C)c1C | 3.58
135 | CCS[C@@H]1C(O)C2CC(=O)CC1N2C (stereo partly specified) | 4.9 and 5.4
136 | C=CC1CN2CCC1C[C@H]2C(=O)[O-] (stereo partly specified) | 10.6
137 | Cc1ccc2c(c1)CC(=O)CC2 | 12.9
138 | NC(CCc1ccc([N+](=O)[O-])cc1)C(=O)[O-] (stereo unspecified) | 9.1
139 | O=C1CSc2ncnc(N3CCOCC3)c2N1 | 2.07
140 | CCOC(=O)c1cnc2ccc([N+](=O)[O-])cc2c1[O-] | 8
141 | C1CN(CCN2CCOCC2)CCO1 | 6.65
142 | Nc1nnnn1-c1ccc([N+](=O)[O-])cc1 | 0.34
143 | c1cncc(-c2cccnc2)c1 | 4.6
144 | CCCN(N)CCC | 7
145 | OCCc1cnc(P(c2ncc(CCO)[nH]2)c2ncc(CCO)[nH]2)[nH]1 | 7.7
146 | Cc1cc(N)ccc1-c1ccc([NH3+])cc1C | 3.7
147 | CN[C@@H]1[C@@H](C)[C@@H]1NC | 9.13
148 | Cc1[nH]c2ccc(N)cc2[nH+]1 | 3.12
149 | Cc1ccc(C(=N)c2ccccc2)c(C)c1 | 6.79

Row | Compound | pKa
150 | Cc1ccc(S(=O)(=O)N(C)CCC(=N)N)cc1 | 11.5
151 | Cc1cnccc1N | 9.15
152 | Cc1ccc2nc3ccc(N)cc3nc2c1 | 4.8
153 | CC1(C)CCC(C2CCC(C)(C)[NH2+]2)N1 (stereo unspecified) | 6.95
154 | CCc1ccc(O)c(CN(C)C)c1 | 8.51
155 | COc1ccc(C2NCCS2)cc1 (stereo unspecified) | 5.45
156 | CCN1CCC[C@@H]1CNC(=O)c1c(OC)ccc(Cl)c1[O-] | 9.54
157 | COc1ccc(/N=N/c2ccncc2)cc1 | 4.53
158 | c1ccc(CSc2ccccn2)cc1 | 3.23
159 | CCOC(=O)C1CC2CCN1CC2 (stereo unspecified) | 8.8
160 | Oc1cccc2cccnc12 | 5.02
161 | CN(C)Cc1ccc(NC(=O)/C=N/[O-])cc1 | 9.56
162 | C1CCc2nnc3c(c2CC1)CCCC3 | 6.03
163 | CC(=O)c1ccccc1 | 18.3
164 | NNCCOc1ccccc1 | 6.8
165 | OC[C@@H]1CCN2CC[C@H](O)[C@H]12 | 10.2
166 | O=[N+]([O-])c1cccc2cnccc12 | 3.46
167 | NC[C@H]1CCCC[C@@H]1O | 10.2
168 | O/C(=C/c1ccccn1)c1ccccc1 | 3.57
169 | O=Cc1ncnc2nc[nH]c12 | 2.4
170 | CN(C)CCN(C)CCN | 9.88
171 | Nc1ncnc2scnc12 | 2.77
